Experimental data published in patent US9375004B2 (Bayer Intellectual Property GmbH, priority 2010, dated 2016).

Assay: logP by HPLC on reversed-phase column (EEC Directive 79/831 Annex V.A8)
Details: HPLC on reversed-phase column (C 18), EEC Directive 79/831 Annex V.A8

| Compound | logP |
| --- | --- |
| Cn1nc(C(F)F)c(C(=S)Nc2ccccc2C2CC2C2CC2)c1Cl (single isomer, unassigned) [Example 49] | 3.79 |
| Cn1nc(C(F)F)c(C(=S)Nc2ccccc2C2CC2C2CC2)c1Cl (single isomer, unassigned) [Example 50] | 3.81 |
| CC(C)CCc1cc(F)ccc1NC(=O)c1c(C(F)F)nn(C)c1F [Example 10] | 3.67 |
| CC(C)Oc1cccc(NC(=S)c2c(C(F)F)nn(C)c2Cl)c1 [Example 171] | 3.41 |
| CC(C)c1ccccc1NC(=O)c1c(C(F)F)nn(C)c1F [compound 1] | 2.82 |
| CC(C)c1ccccc1NC(=O)c1c(C(F)F)nn(C)c1Cl [compound 2] | 3.02 |
| Cn1nc(C(F)F)c(C(=O)Nc2ccccc2C(C)(C)C)c1Cl [compound 4] | 3.21 |
| CC(C)=CCc1ccccc1NC(=O)c1c(C(F)F)nn(C)c1Cl [compound 5] | 3.35 |
| CC(C)=CCc1ccccc1NC(=O)c1c(C(F)F)nn(C)c1F [compound 6] | 3.20 |
| Cc1cccc(CCC(C)(C)C)c1NC(=O)c1c(C(F)F)nn(C)c1F [compound 15] | 3.85 |
| Cc1cccc(NC(=O)c2c(C(F)F)nn(C)c2F)c1CCC(C)(C)C [compound 16] | 4.06 |
| Cc1ccc(CCC(C)(C)C)c(NC(=O)c2c(C(F)F)nn(C)c2F)c1 [compound 17] | 4.29 |
| Cn1nc(C(F)F)c(C(=O)Nc2cc(Cl)ccc2CCC(C)(C)C)c1F [compound 18] | 4.51 |
| C#CCOc1ccccc1NC(=O)c1c(C(F)F)nn(C)c1F [compound 26] | 2.71 |
| Cn1nc(C(F)F)c(C(=O)Nc2ccccc2OCC(C)(C)C)c1F [compound 27] | 4.08 |
| Cn1nc(C(F)F)c(C(=O)Nc2ccccc2OC(F)(F)C(F)F)c1F [compound 29] | 3.08 |
| Cn1nc(C(F)F)c(C(=O)Nc2ccccc2OC(F)(F)C(F)F)c1Cl [compound 30] | 3.31 |
| Cn1nc(C(F)F)c(C(=O)Nc2cccc(Cl)c2SCC(F)F)c1F [compound 33] | 3.53 |
| Cn1nc(C(F)F)c(C(=O)Nc2cc(F)ccc2SCC(F)F)c1F [compound 34] | 3.33 |
| Cn1nc(C(F)F)c(C(=O)Nc2ccccc2SC(F)(F)F)c1F [compound 36] | 3.37 |
| Cn1nc(C(F)F)c(C(=O)Nc2ccccc2SCC(F)(F)F)c1F [compound 37] | 3.29 |
| Cn1nc(C(F)F)c(C(=O)Nc2cccc(Cl)c2SCC(F)(F)F)c1F [compound 39] | 3.73 |
| Cn1nc(C(F)F)c(C(=O)Nc2cc(Cl)ccc2SCC(F)(F)F)c1F [compound 40] | 3.92 |
| Cn1nc(C(F)F)c(C(=O)Nc2ccccc2SCC2CC2(Cl)Cl)c1F (stereo not drawn) [compound 41] | 3.27 |
| Cn1nc(C(F)F)c(C(=O)Nc2ccccc2SC(F)(F)C(F)(F)C(F)(F)F)c1F [compound 42] | 4.25 |
| Cn1nc(C(F)F)c(C(=O)Nc2ccccc2Br)c1F [compound 43] | 2.82 |

| Compound | logP |
| --- | --- |
| Cn1nc(C(F)F)c(C(=O)Nc2ccccc2Br)c1Cl [compound 44] | 3.13 |
| Cn1nc(C(F)F)c(C(=O)Nc2ccccc2C2CC2)c1F [compound 45] | 2.96 |
| CC1CCCC(c2ccccc2NC(=O)c2c(C(F)F)nn(C)c2F)C1 (stereo not drawn) [compound 52] | 3.23 |
| Cn1nc(C(F)F)c(C(=O)Nc2cccc3c2CCCC3)c1F [compound 56] | 3.08 |
| Cn1nc(C(F)F)c(C(=O)Nc2cccc3c2CCCC3)c1Cl [compound 57] | 3.31 |
| Cn1nc(C(F)F)c(C(=O)Nc2cccc3c2OCCO3)c1Cl [compound 58] | 2.70 |
| Cn1nc(C(F)F)c(C(=O)Nc2cccc3c2OCCO3)c1F [compound 59] | 2.44 |
| Cn1nc(C(F)F)c(C(=O)Nc2cccc3c2OC(F)(F)O3)c1F [compound 62] | 2.77 |
| Cn1nc(C(F)F)c(C(=O)Nc2cccc3c2OC(F)(F)O3)c1Cl [compound 63] | 3.00 |
| Cc1ccccc1-c1ccccc1NC(=O)c1c(C(F)F)nn(C)c1Cl [compound 76] | 4.14 |
| Cc1cc(C)cc(-c2ccccc2NC(=O)c2c(C(F)F)nn(C)c2F)c1 [compound 81] | 4.11 |
| Cc1cc(C)cc(-c2ccccc2NC(=O)c2c(C(F)F)nn(C)c2Cl)c1 [compound 82] | 4.51 |
| Cn1nc(C(F)F)c(C(=O)Nc2ccccc2-c2cc(F)cc(F)c2)c1F [compound 91] | 3.31 |
| Cn1nc(C(F)F)c(C(=O)Nc2ccccc2-c2cc(F)cc(F)c2)c1Cl [compound 92] | 3.55 |
| CC(C)c1cccc(-c2ccccc2NC(=O)c2c(C(F)F)nn(C)c2F)c1 [compound 93] | 4.30 |
| CC(C)c1cccc(-c2ccccc2NC(=O)c2c(C(F)F)nn(C)c2Cl)c1 [compound 95] | 4.76 |
| CC(C)c1ccc(-c2ccccc2NC(=O)c2c(C(F)F)nn(C)c2F)cc1 [compound 96] | 4.44 |
| CC(C)c1ccc(-c2ccccc2NC(=O)c2c(C(F)F)nn(C)c2Cl)cc1 [compound 97] | 4.86 |
| Cn1nc(C(F)F)c(C(=O)Nc2ccccc2-c2ccc(F)c(Cl)c2)c1F [compound 102] | 3.60 |
| Cn1nc(C(F)F)c(C(=O)Nc2ccccc2-c2ccc(F)c(Cl)c2)c1Cl [compound 103] | 3.85 |
| Cn1nc(C(F)F)c(C(=O)Nc2ccccc2-c2ccc(C(C)(C)C)cc2)c1F [compound 109] | 4.73 |
| Cn1nc(C(F)F)c(C(=O)Nc2ccccc2-c2ccc(C(C)(C)C)cc2)c1Cl [compound 110] | 5.14 |
| CC(C)Oc1cccc(-c2ccccc2NC(=O)c2c(C(F)F)nn(C)c2F)c1 [compound 111] | 3.96 |
| CC(C)Oc1cccc(-c2ccccc2NC(=O)c2c(C(F)F)nn(C)c2Cl)c1 [compound 112] | 4.36 |
| CC(C)Oc1ccc(-c2ccccc2NC(=O)c2c(C(F)F)nn(C)c2F)cc1 [compound 113] | 4.01 |
| CC(C)Oc1ccc(-c2ccccc2NC(=O)c2c(C(F)F)nn(C)c2Cl)cc1 [compound 114] | 4.36 |

Continued, values first:

| logP | Compound |
| --- | --- |
| 3.94 | Cn1nc(C(F)F)c(C(=O)Nc2ccccc2-c2ccc(C(F)(F)F)cc2)c1Cl [compound 120] |
| 3.76 | Cn1nc(C(F)F)c(C(=O)Nc2ccccc2-c2cccc(Cl)c2Cl)c1F [compound 121] |
| 4.06 | Cn1nc(C(F)F)c(C(=O)Nc2ccccc2-c2cccc(Cl)c2Cl)c1Cl [compound 122] |
| 3.89 | Cn1nc(C(F)F)c(C(=O)Nc2ccccc2-c2ccc(Cl)cc2Cl)c1F [compound 123] |
| 4.24 | Cn1nc(C(F)F)c(C(=O)Nc2ccccc2-c2ccc(Cl)cc2Cl)c1Cl [compound 124] |
| 4.01 | Cn1nc(C(F)F)c(C(=O)Nc2ccccc2-c2cc(Cl)cc(Cl)c2)c1F [compound 127] |
| 4.31 | Cn1nc(C(F)F)c(C(=O)Nc2ccccc2-c2cc(Cl)cc(Cl)c2)c1Cl [compound 128] |
| 3.78 | CO/N=C(\C)c1ccc(-c2ccccc2NC(=O)c2c(C(F)F)nn(C)c2F)cc1 [compound 129] |
| 4.11 | CO/N=C(\C)c1ccc(-c2ccccc2NC(=O)c2c(C(F)F)nn(C)c2Cl)cc1 [compound 130] |
| 4.61 | CC(C)COc1ccc(-c2ccccc2NC(=O)c2c(C(F)F)nn(C)c2F)cc1 [compound 131] |
| 5.25 | Cn1nc(C(F)F)c(C(=O)Nc2ccccc2-c2cccc([Si](C)(C)C)c2)c1Cl [compound 132] |
| 4.83 | Cn1nc(C(F)F)c(C(=O)Nc2ccccc2-c2cccc([Si](C)(C)C)c2)c1F [compound 133] |
| 4.98 | Cn1nc(C(F)F)c(C(=O)Nc2ccccc2-c2ccc([Si](C)(C)C)cc2)c1F [compound 134] |
| 4.96 | CC(C)COc1ccc(-c2ccccc2NC(=O)c2c(C(F)F)nn(C)c2Cl)cc1 [compound 135] |
| 5.39 | Cn1nc(C(F)F)c(C(=O)Nc2ccccc2-c2ccc([Si](C)(C)C)cc2)c1Cl [compound 136] |
| 3.83 | Cn1nc(C(F)F)c(C(=O)Nc2ccccc2-c2cccc(OC(F)(F)F)c2)c1F [compound 142] |

| logP | Compound |
| --- | --- |
| 4.11 | Cn1nc(C(F)F)c(C(=O)Nc2ccccc2-c2cccc(OC(F)(F)F)c2)c1Cl [compound 143] |
| 4.19 | Cn1nc(C(F)F)c(C(=O)Nc2ccccc2-c2ccc(OC(F)(F)F)cc2)c1Cl [compound 144] |
| 3.92 | Cn1nc(C(F)F)c(C(=O)Nc2ccccc2-c2ccc(OC(F)(F)F)cc2)c1F [compound 145] |
| 4.31 | CC(C)O/N=C/c1ccc(-c2ccccc2NC(=O)c2c(C(F)F)nn(C)c2F)cc1 [compound 146] |
| 4.63 | CC(C)O/N=C/c1ccc(-c2ccccc2NC(=O)c2c(C(F)F)nn(C)c2Cl)cc1 [compound 147] |
| 5.17 | C/C(=N\OC(C)(C)C)c1ccc(-c2ccccc2NC(=O)c2c(C(F)F)nn(C)c2F)cc1 [compound 156] |
| 5.54 | C/C(=N\OC(C)(C)C)c1ccc(-c2ccccc2NC(=O)c2c(C(F)F)nn(C)c2Cl)cc1 [compound 157] |
| 3.67 | Cn1nc(C(F)F)c(C(=O)Nc2ccccc2OCc2ccccc2)c1F [compound 158] |
| 3.99 | Cn1nc(C(F)F)c(C(=O)Nc2ccccc2OCc2ccccc2)c1Cl [compound 159] |
| 3.96 | Cc1ccccc1Oc1ccccc1NC(=O)c1c(C(F)F)nn(C)c1F [compound 160] |
| 4.29 | Cc1ccccc1Oc1ccccc1NC(=O)c1c(C(F)F)nn(C)c1Cl [compound 161] |
| 4.56 | Cn1nc(C(F)F)c(C(=O)Nc2ccccc2OCc2cc(Cl)ccc2Cl)c1F [compound 162] |
| 4.34 | Cn1nc(C(F)F)c(C(=O)Nc2ccccc2Sc2ccc(Cl)cc2)c1F [compound 164] |
| 4.63 | Cn1nc(C(F)F)c(C(=O)Nc2ccccc2Sc2ccc(Cl)cc2)c1Cl [compound 165] |
| 2.54 | CCOc1ccc(NC(=O)c2c(C(F)F)nn(C)c2F)cc1OCC [compound 167] |

Same assay, conditions: reversed-phase HPLC column (C 18)

| chromatographic logP | Compound |
| --- | --- |
| 3.52 | Nc1ccc(F)cc1-c1ccc(C(F)(F)F)cc1 [5-fluoro-4′-(trifluoromethyl)biphenyl-2-amine] |
